According to publication PMC9823097, “Dysregulation of PRMT5 in chronic lymphocytic leukemia promotes progression with high risk of Richter’s transformation” (Nature Communications, 2023):

Experiments:
[1] = tested on: HG3 cells; experiment: Cell growth curves over 12 days, HG3; assay type: cell-based
Description: (§1) Live cells/mL were counted on days 3, 6, 10, and 12. […] The split factor was calculated at indicated time points by dividing the counted cells/mL by 3E5. Cell growth was extrapolated over time by multiplying the subsequent cell count by the previous split factor. Cell growth is plotted as fold change relative to DMSO-treated cells.

[2] = tested on: Mec-1 cells; experiment: Cell growth curves over 12 days, Mec-1; assay type: cell-based; conditions: for Rep 1 Live Cells [Fold Change] / Rep 2 Live Cells [Fold Change] / Rep 3 Live Cells [Fold Change]: Mec-1, 1 nM
Description: as §1

[3] = HG3, continuous exposure over 12 days

SMILES: CON=c1nc[nH]c2c1ccn2[C@@H]1O[C@H]([C@H](O)c2ccc(Cl)c(Cl)c2)[C@@H](O)[C@H]1O.Cl [PRT382, (2 R,3 S,4 R,5 R)-2-[(R)-(3,4-dichlorophenyl)-hydroxy-methyl]-5-[(4Z)-4-methoxyimino-1H-pyrrolo[2,3-d]pyrimidin-7-yl]tetrahydrofuran-3,4-diol hydrochloride]
- anti-proliferative potency compared to JNJ-64619178, LLY-283, and PF-06855800 ([1]; HG3): similar-to-reduced
- Rep 1 Live Cells [Fold Change] ([1]; HG3, 1 nM, day 0): 1 Fold Change
- Rep 2 Live Cells [Fold Change] ([1]; HG3, 1 nM, day 0): 1 Fold Change
- Rep 3 Live Cells [Fold Change] ([1]; HG3, 1 nM, day 0): 1 Fold Change
- Rep 1 Live Cells [Fold Change] ([1]; HG3, 1 nM, day 3): 5.95 Fold Change
- Rep 2 Live Cells [Fold Change] ([1]; HG3, 1 nM, day 3): 7.45 Fold Change
- Rep 3 Live Cells [Fold Change] ([1]; HG3, 1 nM, day 3): 5.95 Fold Change
- Rep 1 Live Cells [Fold Change] ([1]; HG3, 1 nM, day 6): 46.5092 Fold Change
- Rep 2 Live Cells [Fold Change] ([1]; HG3, 1 nM, day 6): 44.5758 Fold Change
- Rep 3 Live Cells [Fold Change] ([1]; HG3, 1 nM, day 6): 27.1717 Fold Change
- Rep 1 Live Cells [Fold Change] ([1]; HG3, 1 nM, day 10): 425.559 Fold Change
- Rep 2 Live Cells [Fold Change] ([1]; HG3, 1 nM, day 10): 463.589 Fold Change
- Rep 3 Live Cells [Fold Change] ([1]; HG3, 1 nM, day 10): 237.752 Fold Change
- Rep 1 Live Cells [Fold Change] ([1]; HG3, 1 nM, day 12): 1418.53 Fold Change
- Rep 2 Live Cells [Fold Change] ([1]; HG3, 1 nM, day 12): 1486.57 Fold Change
- Rep 3 Live Cells [Fold Change] ([1]; HG3, 1 nM, day 12): 1077.81 Fold Change
- Rep 1 Live Cells [Fold Change] ([1]; HG3, 10 nM, day 0): 1 Fold Change
- Rep 2 Live Cells [Fold Change] ([1]; HG3, 10 nM, day 0): 1 Fold Change
- Rep 3 Live Cells [Fold Change] ([1]; HG3, 10 nM, day 0): 1 Fold Change
- Rep 1 Live Cells [Fold Change] ([1]; HG3, 10 nM, day 3): 6.983 Fold Change
- Rep 2 Live Cells [Fold Change] ([1]; HG3, 10 nM, day 3): 6.833 Fold Change
- Rep 3 Live Cells [Fold Change] ([1]; HG3, 10 nM, day 3): 6.567 Fold Change
- Rep 1 Live Cells [Fold Change] ([1]; HG3, 10 nM, day 6): 48.6506 Fold Change
- Rep 2 Live Cells [Fold Change] ([1]; HG3, 10 nM, day 6): 58.5389 Fold Change
- Rep 3 Live Cells [Fold Change] ([1]; HG3, 10 nM, day 6): 42.7928 Fold Change
- Rep 1 Live Cells [Fold Change] ([1]; HG3, 10 nM, day 10): 471.91 Fold Change
- Rep 2 Live Cells [Fold Change] ([1]; HG3, 10 nM, day 10): 680.515 Fold Change
- Rep 3 Live Cells [Fold Change] ([1]; HG3, 10 nM, day 10): 419.369 Fold Change
- Rep 1 Live Cells [Fold Change] ([1]; HG3, 10 nM, day 12): 1691.01 Fold Change
- Rep 2 Live Cells [Fold Change] ([1]; HG3, 10 nM, day 12): 2381.8 Fold Change
- Rep 3 Live Cells [Fold Change] ([1]; HG3, 10 nM, day 12): 2411.37 Fold Change
- Rep 1 Live Cells [Fold Change] ([1]; HG3, 100 nM, day 0): 1 Fold Change
- Rep 2 Live Cells [Fold Change] ([1]; HG3, 100 nM, day 0): 1 Fold Change
- Rep 3 Live Cells [Fold Change] ([1]; HG3, 100 nM, day 0): 1 Fold Change
- Rep 1 Live Cells [Fold Change] ([1]; HG3, 100 nM, day 3): 3.433 Fold Change
- Rep 2 Live Cells [Fold Change] ([1]; HG3, 100 nM, day 3): 6.117 Fold Change
- Rep 3 Live Cells [Fold Change] ([1]; HG3, 100 nM, day 3): 4.417 Fold Change
- Rep 1 Live Cells [Fold Change] ([1]; HG3, 100 nM, day 6): 12.7033 Fold Change
- Rep 2 Live Cells [Fold Change] ([1]; HG3, 100 nM, day 6): 20.7661 Fold Change
- Rep 3 Live Cells [Fold Change] ([1]; HG3, 100 nM, day 6): 13.7726 Fold Change
- Rep 1 Live Cells [Fold Change] ([1]; HG3, 100 nM, day 10): 31.282 Fold Change
- Rep 2 Live Cells [Fold Change] ([1]; HG3, 100 nM, day 10): 112.137 Fold Change
- Rep 3 Live Cells [Fold Change] ([1]; HG3, 100 nM, day 10): 30.472 Fold Change
- Rep 1 Live Cells [Fold Change] ([1]; HG3, 100 nM, day 12): 66.0571 Fold Change
- Rep 2 Live Cells [Fold Change] ([1]; HG3, 100 nM, day 12): 233.431 Fold Change
- Rep 3 Live Cells [Fold Change] ([1]; HG3, 100 nM, day 12): 63.4325 Fold Change
- Rep 1 Live Cells [Fold Change] ([1]; HG3, 1 µM, day 0): 1 Fold Change
- Rep 2 Live Cells [Fold Change] ([1]; HG3, 1 µM, day 0): 1 Fold Change
- Rep 3 Live Cells [Fold Change] ([1]; HG3, 1 µM, day 0): 1 Fold Change
- Rep 1 Live Cells [Fold Change] ([1]; HG3, 1 µM, day 3): 3.05 Fold Change
- Rep 2 Live Cells [Fold Change] ([1]; HG3, 1 µM, day 3): 6.15 Fold Change
- Rep 3 Live Cells [Fold Change] ([1]; HG3, 1 µM, day 3): 3.933 Fold Change
- Rep 1 Live Cells [Fold Change] ([1]; HG3, 1 µM, day 6): 3.162 Fold Change
- Rep 2 Live Cells [Fold Change] ([1]; HG3, 1 µM, day 6): 4.9815 Fold Change
- Rep 3 Live Cells [Fold Change] ([1]; HG3, 1 µM, day 6): 4.615 Fold Change
- Rep 1 Live Cells [Fold Change] ([1]; HG3, 1 µM, day 10): 2.64 Fold Change
- Rep 2 Live Cells [Fold Change] ([1]; HG3, 1 µM, day 10): 3.873 Fold Change
- Rep 3 Live Cells [Fold Change] ([1]; HG3, 1 µM, day 10): 1.218 Fold Change
- Rep 1 Live Cells [Fold Change] ([1]; HG3, 1 µM, day 12): 1.11 Fold Change
- Rep 2 Live Cells [Fold Change] ([1]; HG3, 1 µM, day 12): 5.3136 Fold Change
- Rep 3 Live Cells [Fold Change] ([1]; HG3, 1 µM, day 12): 0.1619 Fold Change
- dose at which growth inhibition begins [1, 3]: 100 nM
- effect on growth potential (cell growth) [1, 3]: time and dose-dependent growth inhibition
- anti-proliferative potency compared to JNJ-64619178, LLY-283, and PF-06855800 ([2]; Mec-1): similar-to-reduced
- Rep 1 Live Cells [Fold Change] ([2]; day 0): 1 Fold Change
- Rep 2 Live Cells [Fold Change] ([2]; day 0): 1 Fold Change
- Rep 3 Live Cells [Fold Change] ([2]; day 0): 1 Fold Change
- Rep 1 Live Cells [Fold Change] ([2]; day 3): 5.48 Fold Change
- Rep 2 Live Cells [Fold Change] ([2]; day 3): 7.38 Fold Change
- Rep 3 Live Cells [Fold Change] ([2]; day 3): 6.82 Fold Change
- Rep 1 Live Cells [Fold Change] ([2]; day 6): 47.7 Fold Change
- Rep 2 Live Cells [Fold Change] ([2]; day 6): 61 Fold Change
- Rep 3 Live Cells [Fold Change] ([2]; day 6): 62.4 Fold Change
- Rep 1 Live Cells [Fold Change] ([2]; day 10): 655 Fold Change
- Rep 2 Live Cells [Fold Change] ([2]; day 10): 809 Fold Change
